Reference: patent US8309766B2 (Obschestvo S. Organichennoi Otvetstvennostiyu …, priority 2005, dated 2012)

Legend:
[1] = test system: carrageenan edema of rat paw; assay: Carrageenan edema of rat paw; format: in vivo, outbreed white rats; conditions: rats; 10% ointment; 4 hours post carrageenan
Protocol: The tests were conducted on males of outbreed white rats weighing 250-270 grams. The model of carrageenan edema was used which model is described in Winter et al. In: DeRosa M., Giroud J. P. Willoughby D. A. Studies of the mediators of acute inflammatory response induced in rats in different sites by carrageenan and turpentine.//J. Pharmacol. 1971. V. 104. P. 15-29.
0.1 ml 1% carrageenan solution (SERVA) was subplantarly injected into a right paw of rats. The animals were placed into individual chambers. […] Paw volume was measured using a pletismometer (Ugo Besile) at 4 hours post carrageenan administration. Therapeutic effect of the ointment was assessed by the inhibition degree of inflammatory reaction as compared to an intact left paw of the given animal and to a paw reaction of a control (untreated) group of rats. Inhibition of inflammatory reaction expressed in percent was calculated according to the formula: […]

gastric mucosa of rats = assay: Ulcerogenic effect on gastric mucosa; format: in vivo, outbreed rats; conditions: 30 mg/kg once intragastrally, at 24 hours, M ± m
Protocol: The tests were carried out on females of outbreed rats weighing 300-320 grams. The compounds tested were administered once intragastrally at a dose 30 mg/kg to rats deprived of feed for 24 hours prior to the test. Animals in the control group were administered distilled water in the same volume. At 24 hours the animals were sacrificed and stomachs were extracted. An empty stomach was filled with 2% formalin solution and it was placed into a beaker with formalin. 30 minutes later, the stomach was opened along the great curvature, expanded on a slide, fixed and washed with distilled water. Using the magnifying glass MBS-9 (8-fold magnification) length and width of gastric mucosa defects was measured and area in mm^2 was calculated (1 division of the magnifying glass ruler=0.1 mm). Ulcerogenic effect of a substance was assessed by ulcerous lesion area of gastric mucosa according to the technique presented in Rukovodstvo po experimental'nomu (doklinicheskomu) izucheniju novykh pharmacologicheskikh veshchestv (the Guide on Experimental (pre-clinical) Study of Novel Pharmacological Substances)./Moscow. “Remedium” publishers. 2000, 398 pages.

HL-60 cells = conditions: Chen et al., Chinese Pharmaceutical Journal 2001; cited from earlier work

COc1ccc2c(c1)c(CC(=O)O)c(C)n2C(=O)c1ccc(Cl)cc1 [Indomethacin, reference compound]
Edema inhibition (%) [1]: 50.0%
Paw volume gain (%) [1]: 45.0%
Area of ulcerous lesion (gastric mucosa of rats): 7.3 ± 1.75 mm^2

O=C(Cc1ccccc1)N[C@@H](Cc1ccccc1)C(=O)O [XIX, phenylacetylphenylalanine]
cellular differentiation (HL-60 cells): inductor of cellular differentiation
